Read-outs that look alike come from different tables or passages of the source.
How the values were obtained:
[1] = target: Protein arginine deiminase 4 (PAD4) (Homo sapiens, UniProt Q9UM07); experiment: PAD4 ammonia release assay; assay type: biochemical
Procedure, shortened: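 PAD4 (20 nM, 2× working solution) was preincubated with compound for 15 min at RT in 100 mM HEPES pH 8.0, 2 mM CaCl2, 50 mM NaCl, 0.1 mM TCEP, BSA at 1.25% DMSO. BAEE (600 μM, 2× mix) reacted 60 min, then OPA/DTT/EDTA detection for 120 min. IC50 came from a 4-parameter fit, normalized to 50 μM reference (100%) and DMSO (0%).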

[2] = test system: Citrullinated Histone H3 in dHL-60 cells (differentiated HL-60); experiment: dHL-60 Cit-H3 ELISA assay; assay type: cell-based, human; settings: read-out: Average IC50 Abs
Description: Cell culture: HL-60 cells were grown in IMDM+20% FBS+1% PS. The suspension cells were split into 1:5 with fresh media every 2-3 days to maintain cell density between 1×10^5 to 1×10^6 viable cells/mL. HL-60 cells differentiation: HL-60 cells were diluted to 1×10^5 cells/mL and differentiated into neutrophil-like cells with 100 mM DMF treatment for 72 hours in flask at 37° C., 5% CO2. dHL-60 Cells plating: • 1) HL-60 cells were collected, and the plate was centrifuged at 1000 rpm for 5 min. • 2) The HL-60 cells were diluted to 1.25×10^6 cells/mL and plated into a 96-well plate with 80 μL/well (i.e., 1×10^5/well). The plate was then incubated in the incubator (5% CO2, 37° C.) for 30 min to allow cells to adhere. Compound treatment: • 1) Preparation of compound serial dilution (source plate 500×, final DMSO concentration: 0.2%): briefly, compounds were dissolved in 100% DMSO to a concentration of 20 mM (the stock solution) and a 3-fold serial dilution with 8-point doses was performed. • 2) A 10× compound solution was pipetted up and down; and 10 μL/well of compounds were added into each well and incubated for 30 min. Stimulation with 25 μM A23187: • 1) A solution of A23187 (250 μM) in complete IMDM (IMDM+10% FBS+1% PS) containing 150 U/mL S7 Nuclease was prepared. The obtained solution was added 10 μL/well into each well and incubated for 3 h in the incubator (5% CO2, 37° C.). • 2) The dHL-60 cells treated with 10 μL/well complete IMDM without A23187 worked as negative control. Sample preparation: • 1) EDTA (0.5 M, 2 μL/well) were added to all the wells to stop the reaction. • 2) The plate was centrifuged at 1000 rpm for 5 min to collect supernatant. • 3) The supernatant was then diluted at least 1:2 before adding to the ELISA plate for citrullinated H3 analysis.
The standard was reconstituted with 2 mL of Assay buffer to 500 ng/mL. The reconstituted standard was relatively unstable at 4° C. and should be used within 3 hr after reconstitution.
• 1) 100 μL of the standards or diluted samples were added to the wells on the ELISA plate. • 2) The plate was covered with Cover Sheet and incubated for 2 h at room temperaturert on an orbital shaker.
On the day of the assay, the reagent was thawed at room temperaturert. For one plate, 1.2 mL of HRP Conjugate were diluted into 10.8 mL of assay buffer. A diluted HRP Conjugate was prepared shortly before use.
• 1) The wells were empties and rinsed four times with 1× wash buffer with 300 μL/well (Low speed). The plate was inverted between wash steps to empty the plate. After the last wash, the inverted plate was gently tapped on absorbent paper to remove the residual wash buffer. • 2) 100 μL of the HRP Conjugate working solution were added to each well of the plate. • 3) The plate was covered with cover sheet and incubated for 1 h at RT on an orbital shaker.
• 1) The wells were empties and rinsed four times with 1× wash buffer with 300 μL/well (low speed). The plate was inverted between wash steps to empty the plate. […] 100 uL of HRP STOP solution were added to each well of the plate.
• 1) Wipe the bottom of the plate with a clean tissue to remove fingerprints, dirt, etc. • 2) Read the plate at a wavelength of 450 nm.
The percent (%) inhibition at each concentration of compound was calculated based on and relative to the signal in the HPE and ZPE wells contained within each assay plate. The HPE wells worked as […], and the ZPE wells didn't contain any compound but rather DMSO (final concentration=0.1%) as […]. The concentrations and % inhibition values for tested compounds were plotted and the concentration of compound required for 50% inhibition (IC50) was determined with a Four-parameter logistic dose response equation. The endpoint value (IC50) for the reference peptide/compound was evaluated in each experiment as a quality control measure. If the endpoint value is within 3-fold of the expected value then the experiment is deemed acceptable. […]

[3] = PAD4 ammonia release assay, BAEE substrate, 60 min at RT, read-out: Average IC50 Abs
[4] = Homo sapiens, HL-60, 3 h, stimulation with 25 μM A23187 for 3 h
[5] = PAD4 activity comparison, read-out: PAD4 Ammonia assay IC50
[6] = Homo sapiens, HL-60, stimulation with 25 μM A23187 for 3 h

Protein arginine deiminase 4 (PAD4), sequence (Q9UM07 whole entry): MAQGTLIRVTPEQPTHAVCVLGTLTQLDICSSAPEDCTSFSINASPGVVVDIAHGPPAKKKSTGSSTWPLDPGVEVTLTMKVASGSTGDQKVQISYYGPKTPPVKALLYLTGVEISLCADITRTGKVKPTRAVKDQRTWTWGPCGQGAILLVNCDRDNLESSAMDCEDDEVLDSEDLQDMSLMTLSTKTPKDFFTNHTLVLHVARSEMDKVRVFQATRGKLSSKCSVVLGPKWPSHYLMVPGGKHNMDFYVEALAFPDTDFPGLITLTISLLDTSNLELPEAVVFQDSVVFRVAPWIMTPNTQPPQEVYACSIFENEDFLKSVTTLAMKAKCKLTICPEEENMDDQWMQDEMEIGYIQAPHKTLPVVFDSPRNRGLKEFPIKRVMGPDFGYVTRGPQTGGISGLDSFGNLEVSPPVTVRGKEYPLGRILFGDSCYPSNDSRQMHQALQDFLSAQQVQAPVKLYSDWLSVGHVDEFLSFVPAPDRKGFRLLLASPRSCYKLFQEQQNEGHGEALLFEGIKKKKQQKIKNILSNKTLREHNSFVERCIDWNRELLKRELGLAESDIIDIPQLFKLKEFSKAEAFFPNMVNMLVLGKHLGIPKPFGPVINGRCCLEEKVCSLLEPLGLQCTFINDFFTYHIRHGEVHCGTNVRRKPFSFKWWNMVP

| IC50 [1, 3] | IC50 [2, 4] | IC50 ([2]; stimulation with 25 μM A23187 for 3 h) | IC50 [1, 5] | Structure (SMILES) | IC50 [2, 6] |
| --- | --- | --- | --- | --- | --- |
| ≤ 100 nM | ≤ 100 nM | – | – | Cn1c(-c2cc3cccc4c3n2C(C2CC2)CN4CCCO)nc2cc(C(=O)N3C[C@H]4CC[C@@H]3[C@@H]4N)cc(F)c21 (mixture of isomers) [Example 111, [(1R,4R,7R)-7-amino-2-azabicyclo[2.2.1]heptan-2-yl]-[2-[11-cyclopropyl-9-(3-hydroxypropyl)-1,9-diazatricyclo[6.3.1.04,12]dodeca-2,4(12), 5,7-tetraen-2-yl]-7-fluoro-1-methyl-benzimidazol-5-yl]methanone] | – |
| ≤ 100 nM | ≤ 100 nM | – | – | Cn1c(-c2cc3ccc(C#N)c4c3n2C(C2CC2)CN4)nc2cc(C(=O)N3C[C@H]4CC[C@@H]3[C@@H]4N)cc(F)c21 (mixture of isomers) [Example 114, 5-(5-((1R,4R,7R)-7-amino-2-azabicyclo[2.2.1]heptane-2-carbonyl)-7-fluoro-1-methyl-1H-benzo[d]imidazol-2-yl)-3-cyclopropyl-2,3-dihydro-1H-pyrrolo[1,2,3-de]quinoxaline-9-carbonitrile] | – |
| 500 to 5000 nM | – | > 5000 nM | – | CCC1CN(CCCO)c2cccc3cc(-c4nc5cc(C(=O)N6C[C@H](N)C[C@@H](F)C6)cc(OC)c5n4C)n1c23 (single isomer, unassigned) [Example 81] | – |
| ≤ 100 nM | ≤ 100 nM | – | – | Cn1c(-c2cc3cccc4c3n2[C@@H](C2CC2)CN4)nc2cc(C(=O)N3C[C@H]4CC[C@@H]3[C@@H]4N)cc(F)c21 (single isomer, unassigned) [Example 110] | – |
| ≤ 100 nM | ≤ 100 nM | – | – | Cn1c(-c2cc3cccc4c3n2[C@@H](C2CC2)CN4CCCO)nc2cc(C(=O)N3C[C@H]4CC[C@@H]3[C@@H]4N)cc(F)c21 (single isomer, unassigned) [Example 112] | – |
| ≤ 100 nM | ≤ 100 nM | – | – | Cn1c(-c2cc3ccc(C#N)c4c3n2[C@@H](C2CC2)CN4)nc2cc(C(=O)N3C[C@H]4CC[C@@H]3[C@@H]4N)cc(F)c21 (single isomer, unassigned) [Example 115] | – |
| > 5000 nM | 500 to 5000 nM | – | 5430 nM | COc1cc(C(=O)N2CCC[C@@H](N)C2)cc2nc(-c3cc4cccc5c4n3CCN5)n(C)c12 [Example 2, (R)-(3-aminopiperidin-1-yl)(2-(2,3-dihydro-1H-pyrrolo[1,2,3-de]quinoxalin-5-yl)-7-methoxy-1-methyl-1H-benzo[d]imidazol-5-yl)methanone] | – |
| 100 to 500 nM | 500 to 5000 nM | – | – | COc1cc(C(=O)N2CCC[C@@H](N)C2)cc2nc(-c3cc4cccc5c4n3CCN5CCCO)n(C)c12 [Example 12, (R)-(3-aminopiperidin-1-yl)(2-(1-(3-hydroxypropyl)-2,3-dihydro-1H-pyrrolo[1,2,3-de]quinoxalin-5-yl)-7-methoxy-1-methyl-1H-benzo[d]imidazol-5-yl)methanone] | – |
| 100 to 500 nM | 500 to 5000 nM | – | – | COc1cc(C(=O)N2C[C@H](N)C[C@@H](F)C2)cc2nc(-c3cc4cccc5c4n3CCN5CCCO)n(C)c12 [Example 13] | – |
| 100 to 500 nM | 100 to 500 nM | – | – | COc1cc(C(=O)N2C[C@H](N)C[C@@H](F)C2)cc2nc(-c3cc4cccc5c4n3CCN5CCCO)n(CC(F)(F)F)c12 [Example 23, ((3R,5R)-3-amino-5-fluoropiperidin-1-yl)(2-(1-(3-hydroxypropyl)-2,3-dihydro-1H-pyrrolo[1,2,3-de]quinoxalin-5-yl)-7-methoxy-1-(2,2,2-trifluoroethyl)-1H-benzo[d]imidazol-5-yl)methanone] | – |
| ≤ 100 nM | – | – | – | Cn1c(-c2cc3ccc4cc[nH]c4c3n2CC2CCC2)nc2cc(C(=O)N3C[C@H]4CC[C@@H]3[C@@H]4N)cc(F)c21 [Example 165, ((1R,4R,7R)-7-amino-2-azabicyclo[2.2.1]heptan-2-yl)(2-(1-(cyclobutylmethyl)-1,8-dihydropyrrolo[3,2-g]indol-2-yl)-7-fluoro-1-methyl-1H-benzo[d]imidazol-5-yl)methanone] | – |
| > 5000 nM | – | – | 9530 nM | Cn1c(-c2cc3cccc4c3n2CCN4)nc2cc(C(=O)N3CCC[C@@H](N)C3)ccc21 [Example 166, (R)-(3-aminopiperidin-1-yl)(2-(2,3-dihydro-1H-pyrrolo[1,2,3-de]quinoxalin-5-yl)-1-methyl-1H-benzo[d]imidazol-5-yl)methanone] | – |
| 500 to 5000 nM | – | – | 4090 nM | CC1CNc2cccc3cc(-c4nc5cc(C(=O)N6CCC[C@@H](N)C6)ccc5n4C)n1c23 (stereo partly drawn) [Example 167, ((R)-3-aminopiperidin-1-yl)(1-methyl-2-(3-methyl-2,3-dihydro-1H-pyrrolo[1,2,3-de]quinoxalin-5-yl)-1H-benzo[d]imidazol-5-yl)methanone] | – |
| 500 to 5000 nM | – | – | 2310 nM | Cn1c(-c2cc3cccc4c3n2CCN4)nc2cc(C(=O)N3C[C@H]4CC[C@@H]3[C@@H]4N)ccc21 [Example 168, ((1R,4R,7R)-7-amino-2-azabicyclo[2.2.1]heptan-2-yl)(2-(2,3-dihydro-1H-pyrrolo[1,2,3-de]quinoxalin-5-yl)-1-methyl-1H-benzo[d]imidazol-5-yl)methanone] | – |
| 500 to 5000 nM | – | – | 550 nM | CC1CNc2cccc3cc(-c4nc5cc(C(=O)N6C[C@H]7CC[C@@H]6[C@@H]7N)ccc5n4C)n1c23 (stereo partly drawn) [Example 169, ((1R,4R,7R)-7-amino-2-azabicyclo[2.2.1]heptan-2-yl)(1-methyl-2-(3-methyl-2,3-dihydro-1H-pyrrolo[1,2,3-de]quinoxalin-5-yl)-1H-benzo[d]imidazol-5-yl)methanone] | – |
| > 5000 nM | – | – | – | COc1cc(C(=O)N2C[C@H]3CC[C@@H]2[C@@H]3N)cc2nc(-c3cc4cccc5c4n3C(C3CC3)CN5)c(C)n12 (stereo partly drawn) [Example 170, ((1R,4R,7R)-7-amino-2-azabicyclo[2.2.1]heptan-2-yl)(2-(3-cyclopropyl-2,3-dihydro-1H-pyrrolo[1,2,3-de]quinoxalin-5-yl)-5-methoxy-3-methylimidazo[1,2-a]pyridin-7-yl)methanone] | – |

| Structure (SMILES) | IC50 [1, 3] | IC50 [2, 4] | IC50 ([2]; stimulation with 25 μM A23187 for 3 h) | IC50 [1, 5] | IC50 [2, 6] |
| --- | --- | --- | --- | --- | --- |
| COc1cc(C(=O)N2CCC[C@@H](N)C2)cc2nc(-c3cc4cccc5c4n3CCN5CCO)n(C)c12 [Example 10, (R)-(3-aminopiperidin-1-yl)(2-(1-(2-hydroxyethyl)-2,3-dihydro-1H-pyrrolo[1,2,3-de]quinoxalin-5-yl)-7-methoxy-1-methyl-1H-benzo[d]imidazol-5-yl)methanone] | 500 to 5000 nM | – | – | – | 500 to 5000 nM |
| CCn1cc(Cn2c(-c3cc4cccc5c4n3CCN5CCCO)nc3cc(C(=O)N4C[C@H](N)C[C@@H](F)C4)cc(OC)c32)cn1 [Example 34, ((3R,5R)-3-amino-5-fluoropiperidin-1-yl)(1-((1-ethyl-1H-pyrazol-4-yl)methyl)-2-(1-(3-hydroxypropyl)-2,3-dihydro-1H-pyrrolo[1,2,3-de]quinoxalin-5-yl)-7-methoxy-1H-benzo[d]imidazol-5-yl)methanone] | ≤ 100 nM | – | – | – | 500 to 5000 nM |

From patent US20250136607A1 (REGOR PHARMACEUTICALS, INC., priority 2021, published 2025)
